EP0986299B1, “PLANT TRANSFORMATION METHODS” (Syngenta Participations AG, priority 1997, dated 1998)
Where two headings read alike, the source gives them in different places.

Assays:
maize embryos = conditions: for Score (Callus initiation): transfer 2DG4 + AgNO3 +Cef, two weeks
Procedure: Immature embryos (1.2 to 2.2 mm in length) are aseptically excised 14-15 days after pollination from surface-sterilized, greenhouse-grown ears and plated scutellum up on callus initiation medium, 2DG4 + 5 mg/l chloramben (2DG4-5Chl). 2DG4 medium is Duncan's medium modified to contain […] sucrose.
Embryos with callus response: • Immature embryos are sterilized as described above and plated on callus initiation medium (2DG4-5Chl) and cultured therein for 1 to 7 days. The resulting tissue is used as samples for inoculation.
(§1) Strain A. tumefaciens LBA4404 (pAL4404, pSB1) is used in these experiments. pAL4404 is a disarmed helper plasmid. pSB1 is a wide host range plasmid that contains a region of homology to pGIGUP and a 15.2 kb Kpnl fragment from the virulence region of pTiBo542 (Ishida et al., 1996; High efficiency transformation of maize (Zea mays L.) mediated by Agrobacterium tumefaciens, Nature Biotechnology 14, 745-750). The introduction of the plasmid pGlGUP by electroporation into LBA4404(pAL4404, pSB1) results in a cointegration of pGlGUP and pSB1. The T-DNA of this plasmid contains a plant expressible PAT gene driven by the ubiquitin promoter to provide resistance to phosphinothricin and a gene for GUS with an intron in the N-terminal codon of the coding sequence driven by the Gelvin promoter. This intron-GUS gene expresses GUS activity in the plant cell but not in Agrobacterium.
(§2) Agrobacterium is grown for 3 days on YP medium (5g/l yeast extract, 10g/l peptone, 5g/l NaCl, 15 g/l agar, pH 6.8) supplemented with 50 mg/l spectinomycin and 10 mg/l tetracycline. Bacteria are collected with a loop and suspended in N6 liquid medium at a density ranging from 10^9 to 5 10^9cells/ml. Agrobacterium cells can also be collected from an overnight culture in YP medium and resuspended in N6 liquid medium.
(§3) Maize tissues prepared as described above are inoculated with Agrobacterium. Maize tissues are soaked in the bacterial suspension for 5-10 min and then plated on medium with or without silver nitrate (1 to 10 mg/l). Tissues are also inoculated with a 5 µl drop 10^9 to 5x10^9cells/ml of an Agrobacterium suspension placed on the top of the tissue. After inoculation, maize tissues are cultured in the dark at 25°C with or without silver nitrate in the medium (1 to 10 mg/l). 2 or 3 days after inoculation, tissues are transferred on the same medium supplemented with cefotaxime (250 mg/l) with or without silver nitrate.

maize type I callus = conditions: transfer 2DG4+ AgNO3 + Cef, 2 weeks
Procedure: Embryos plated on callus initiation medium (2DG4 + 5 Chloramben) for 7 to 20 days give rise to callus. […] Resultant embryogenic callus are cut out of embryos and transferred to callus maintenance medium, 2DG4 + 0.5 mg/l (2,4-dichlorophenoxy) acetic acid (2,4-D) and used as samples for inoculation.
Type I callus obtained by the method described above can be maintained on the maintenance medium (2DG4 + 2,4 D 0.5 mg/l) and subcultured every 2 weeks.
as §1, §2, §3

tobacco leaf discs = conditions: silver nitrate during co-cultivation; LBA4404(GIGUP) 10^9 cells/ml
cell line HE/89 = test: DNA fragmentation (DNA ladders) after Agrobacterium exposure, sensitivity to added agents; format: cell-based; conditions: maize cells exposed to Agrobacterium, agent added
Procedure: In order to determine the mechanism of cell death induced by Agrobacterium in maize tissues, genomic DNA is extracted from plant suspension cells harvested 24 or 48 hours after inoculation with Agrobacterium. Exposure to Agrobacterium causes DNA fragmentation in both maize lines, with a pattern characteristic of internucleosomal fragmentation, which is considered an early hallmark of programmed cell death. […] Furthermore, maize cells undergoing programmed cell death could not induce cell death of fresh maize embryogenic tissues.
Further evidence for Agrobacterium inducing DNA fragmentation is obtained by investigating the sensitivity of the process to Zn^2+ and Ca^2+. […] These characteristics are fully consistent with the effect of these divalent cations on the endogenous endonucleases responsible for DNA cleavage during apoptosis in animal system. The intensity of the ladder also is decreased by addition of cycloheximide, evidence that the process requires de novo gene expression. […] Fragmentation of DNA during apoptosis is also detected in situ by reagents that react with the exposed hydroxyls on the nucleosome units. 12 day old maize embryos from a proprietary elite line of Lancaster parentage are inoculated with LBA4404 and plated on DG4 medium supplemented with chloramben. Koziel, M.G., & al. 1993. Bio/Technology 11: 194-200. Apoptotic cells are detected by in situ staining with TACS-1 kit (Trevigen), which involves end labeling the DNA fragments by the klenow enzyme using dNTP conjugated to a detectable marker, giving a dark insoluble precipitate indicative of genomic fragmentation. Cullivier, O., Pirianov, G., Kleuser, B., Vanek, P.G., Coso, O.A., Gutking, J.S. and Spiegel, S. (1996) Nature 381, 800-803. Embryos are soaked in 3.7% formadehyde solution and processed as described by the manufacturer. To detect genomic DNA cleavage in situ, fixed embryos are treated with the TACS-1 kit. Fixed cross-sections are first treated with proteinase K for 5 min at room temperature and then dipped for 5 min into 2% hydrogen peroxide to remove endogenous peroxidase. […]

Q: `O=[N+]([O-])[O-].[Ag+]` [AgNO3, silver nitrate] was tested. Which “embryos able to produce embryogenic calli” value (maize embryos; embryos plated on medium containing silver nitrate, inoculated with Agrobacterium) did it give?
A: About 50%

Q: And the “Score (Callus initiation)” value (maize embryos; no pretreatment, co-inoculation 2DG4 + AgNO3, LBA4404 (GIGUP) 10^9 cells/ml)?
A: 55%

Q: And the “Score (Callus initiation)” value (maize embryos; no pretreatment, co-inoculation 2DG4, LBA4404 (GIGUP) 10^9 cells/ml)?
A: 30%

Q: And the “Score (Callus initiation)” value (maize embryos; pretreatment 2DG4 (6 days) + 1 day on 2DG4 + AgNO3, co-inoculation 2DG4 + AgNO3)?
A: 88%

Q: And the “Score (Callus initiation)” value (maize embryos; pretreatment 2DG4 (6 days), co-inoculation 2DG4 + AgNO3)?
A: 65%

Q: What about the “Score (Callus initiation)” value (maize embryos; pretreatment 2DG4 + AgNO3 (1 day), co-inoculation 2DG4 + AgNO3) of the same molecule?
A: 43%

Q: What about the “Score (Callus initiation)” value (maize embryos; pretreatment 2DG4 + AgNO3(4 days), co-inoculation 2DG4 + AgNO3) of the same molecule?
A: 27%

Q: What about the “Score (Survival of tissues)” value (maize type I callus; 1/2 month old Type I callus, pretreatment 2DG4+AgNO3, co-inoculation 2DG4+AgNO3) of the same molecule?
A: 95%

Q: What about the “Score (Survival of tissues)” value (maize type I callus; 1/2 month old Type I callus, pretreatment 2DG4, co-inoculation 2DG4+AgNO3) of the same molecule?
A: 75%

Q: And the “Score (Survival of tissues)” value (maize type I callus; 10 month-old Type I callus, pretreatment 2DG4+ AgNO3, co-inoculation 2DG4+ AgNO3)?
A: 66%

Q: What about the “Score (Survival of tissues)” value (maize type I callus; 10 month-old Type I callus, pretreatment 2DG4, co-inoculation 2DG4+ AgNO3) of the same molecule?
A: 55%

Q: And the GUS activity (tobacco leaf discs)?
A: No significant decrease

Q: Which “intensity of DNA ladders (genomic fragmentation)” value (“intensity of DNA ladders” below) (cell line HE/89) does the source give for `[Ca+2]` [Ca^2+] here?
A: increased the intensity of DNA ladders

Q: Which “intensity of DNA ladders” value (cell line HE/89) does the source give for `[Zn+2]` [Zn^2+] here?
A: markedly reduced genomic fragmentation

Q: With `CO/N=C(\C(=O)N[C@@H]1C(=O)N2C(C(=O)O)=C(COC(C)=O)CS[C@H]12)c1csc(N)n1` [cefotaxime] as the molecule, how does the “necrosis of maize tissue” value (HE/89) read?
A: does not cause the maize tissue to become necrotic

Q: With `C[C@@H]1C[C@@H]([C@H](O)CC2CC(=O)NC(=O)C2)C(=O)[C@@H](C)C1` [cycloheximide] as the molecule, how does the “intensity of DNA ladders” value (cell line HE/89) read?
A: decreased
